Values quoted from earlier work in patent publication US20060210638A1, “Injectable compositions of nanoparticulate immunosuppressive compounds” (Elan Pharma International Limited, priority 2005, published 2006).
Where two headings read alike, the source gives them in different places. Values belong to the molecule of their own block, whether it stands above or below them.

Tests used:
[1] = in vitro studies
[2] = for mean time-to-peak concentration (Tmax): Rapamune Oral Solution
[3] = not given; remark: listed apart in the source
[4] = for reduction of mean AUC relative to fasted / reduction of mean Cmax relative to fasted: healthy volunteers (N=16)
[5] = for mean clearance: IV administration
[6] = not given; remark: listed apart in the source
[7] = reputed
[8] = 11 liver transplant patients, 15 minutes after high fat (400 kcal, 34% fat) breakfast
[9] = given immediately following the meal
[10] = high-carbohydrate meal (668 kcal, 85% carbohydrate)
[11] = high-fat meal (848 kcal, 46% fat), 15 healthy volunteers

Compound: C=CCC1C=C(C)CC(C)CC(OC)C2OC(O)(C(=O)C(=O)N3CCCCC3C(=O)OC(C(C)=CC3CCC(O)C(O)C3)C(C)C(O)CC1=O)C(C)CC2OC (stereo not shown) [31-demethyl metabolite]
- activity relative to tacrolimus (in words) [1]: same activity as tacrolimus

- mean time-to-peak concentration (Tmax) ([2]; multiple oral doses, renal transplant recipients): approximately 2 hours
- mean time-to-peak concentration (Tmax) ([2]; single dose, healthy subjects): approximately 1 hour
- systemic availability ([2]; after Rapamune Oral Solution): approximately 14%
- stability when exposed to water (in words) (aqueous medium): rapidly hydrolyzes
- solubility in benzyl alcohol, chloroform, acetone, and acetonitrile (in words) (benzyl alcohol, chloroform, acetone, acetonitrile): freely soluble
- solubility in water (water): 20 micrograms per mL
- solubility in water (in words) (water): insoluble
Compound: CO[C@H]1C[C@@H]2CC[C@@H](C)[C@@](O)(O2)C(=O)C(=O)N2CCCC[C@H]2C(=O)O[C@H]([C@H](C)C[C@@H]2CC[C@@H](O)[C@H](OC)C2)CC(=O)[C@H](C)/C=C(\C)[C@@H](O)[C@@H](OC)C(=O)[C@H](C)C[C@H](C)/C=C/C=C/C=C/1C [Sirolimus, (3S,6R,7E,9R,10R,12R,14S,15E,17E,19E,21S,23S,26R,27R ,34aS)-9,10,12,13,14,21,22,23,24,25,26,27,32,33,34,34a-hexadecahydro-9,27-dihydroxy-3-[(1 R )-2-[(1S,3R,4R)-4-hydroxy-3-methoxycyclohexyl]-1-methylethyl]-10,21-dimethoxy-6,8,12,14,20,26-hexamethyl-23,27-epoxy-3H-pyrido[2,1-c] [1,4] oxaazacyclohentriacontine-1,5,11,28,29(4H,6H,31H)-pentone]

- clearance of tacrolimus ([3]; IV): 0.483 ± 0.15 mL/min/kg
- elimination half-life based on tacrolimus concentrations ([3]; IV): 43.5 ± 11.6 h
- fecal elimination ([3]; IV): 92.4±1.0%
- mean recovery of radiolabel ([3]; IV, 6 healthy volunteers): 77.8±12.7%
- clearance of tacrolimus ([3]; oral): 2.87 ± 1.47 mL/min/kg
- elimination half-life based on tacrolimus concentrations ([3]; oral): 48.4 ± 12.3 h
- fecal elimination ([3]; oral): 92.6±30.7%
- mean recovery of the radiolabel ([3]; oral): 94.9±30.7%
- urinary elimination ([3]; oral): 2.3±1.1%
- decreased AUC compared to fasted state [4, 8]: 27±18%
- decreased Cmax compared to fasted state [4, 8]: 50±19%
- reduction of mean AUC relative to fasted ([4]; 1.5 hours following the meal): 39%
- reduction of mean Cmax relative to fasted ([4]; 1.5 hours following the meal): 63%
- reduction of mean AUC relative to fasted [4, 9]: 39%
- reduction of mean Cmax relative to fasted [4, 9]: 71%
- decrease of mean AUC [4, 10]: 28%
- decrease of mean Cmax [4, 10]: 65%
- Tmax lengthened [4, 11]: 5 fold
- decrease of mean AUC [4, 11]: 37%
- decrease of mean Cmax [4, 11]: 77%
- correlation coefficient of trough concentration (Cmin) with AUC ([5]; 18 kidney transplant patients, trough 3 to 30 ng/mL at 10-12 hours post-dose): 0.93
- correlation coefficient of trough concentration (Cmin) with AUC ([5]; 24 liver transplant patients, concentration range 10 to 60 ng/mL): 0.94
- mean clearance ([5]; adult kidney transplant patients): 1.38 mL/min/kg
- mean clearance ([5]; adult liver transplant patients): 0.883 mL/min/kg
- mean clearance ([5]; healthy volunteers): 0.667 mL/min/kg
- dose excreted unchanged in urine ([5]; in man): less than 1%
- ratio of whole blood concentration to plasma concentration, average ([6]; U.S. study): 35
- plasma protein binding ([6]; independent of concentration over 5-50 ng/mL): approximately 99%
- solubility in ethanol (in words) (ethanol): freely soluble
- solubility in methanol and chloroform (in words) (methanol and chloroform): very soluble
- solubility in water (in words) (water): practically insoluble
Compound: C=CC[C@@H]1/C=C(\C)C[C@H](C)C[C@H](OC)[C@H]2O[C@@](O)(C(=O)C(=O)N3CCCC[C@H]3C(=O)O[C@H](/C(C)=C/[C@@H]3CC[C@@H](O)[C@H](OC)C3)[C@H](C)[C@@H](O)CC1=O)[C@H](C)C[C@@H]2OC [Tacrolimus]
- effectiveness relative to cyclosporine [7]: 100 times
